Target: T1, human capsaicin receptor (Homo sapiens, UniProt Q8NER1)
T1 construct: pBK-CMV expression construct encoding the full length human capsaicin receptor; expressed in transfected cells
Assay: Calcium mobilization assay, determination of antagonist activity (Example 6)
Format: cell-based
Settings: cells expressing human capsaicin receptor, capsaicin-induced fluorescence response; read-out: IC50
Protocol: A cDNA encoding full length human capsaicin receptor (SEQ ID NO:1, 2 or 3 of U.S. Pat. No. 6,482,611) is subcloned in the plasmid pBK-CMV (Stratagene, La Jolla, Calif.) for recombinant expression in mammalian cells.
Human embryonic kidney (HEK293) cells are transfected with the pBK-CMV expression construct encoding the full length human capsaicin receptor using standard methods. The transfected cells are selected for two weeks in media containing G418 (400 μg/ml) to obtain a pool of stably transfected cells. Independent clones are isolated from this pool by limiting dilution to obtain clonal stable cell lines for use in subsequent experiments.
Cells transfected with expression plasmids (as described in Example 4) and thereby expressing human capsaicin receptor are seeded and grown to 70-90% confluency in FALCON black-walled, clear-bottomed 96-well plates (#3904, BECTON-DICKINSON, Franklin Lakes, N.J.). The culture medium is emptied from the 96 well plates and FLUO-3 AM calcium sensitive dye (Molecular Probes, Eugene, Oreg.) is added to each well (dye solution: 1 mg FLUO-3 AM, 440 μl DMSO and 440 μl 20% pluronic acid in DMSO diluted 1:250 in Krebs-Ringer HEPES (KRH) buffer (25 mM HEPES, 5 mM KCl, 0.96 mM NaH2PO4, 1 mM MgSO4, 2 mM CaCl2, 5 mM glucose, 1 mM probenecid, pH 7.4), 50 μl diluted solution per well). Plates are covered with aluminum foil and incubated at 37° C. for 1-2 hours in an environment containing 5% CO2. After the incubation, the dye is emptied from the plates, and the cells are washed once with KRH buffer, and resuspended in KRH buffer.
To measure the ability of a test compound to agonize or antagonize a calcium mobilization response in cells expressing capsaicin receptors to capsaicin or other vanilloid agonist, the EC50 of the agonist capsaicin is first determined. An additional 20 μl of KRH buffer and 1 μl DMSO is added to each well of cells, prepared as described above. 100 μl capsaicin in KRH buffer is automatically transferred by the FLIPR instrument to each well. Capsaicin-induced calcium mobilization is monitored using either FLUOROSKAN ASCENT (Labsystems; Franklin, Mass.) or FLIPR (fluorometric imaging plate reader system; Molecular Devices, Sunnyvale, Calif.) instruments. Data obtained between 30 and 60 seconds after agonist application are used to generate an 8-point concentration response curve, with final capsaicin concentrations of 1 nM to 3 μM. KALEIDAGRAPH software (Synergy Software, Reading, Pa.) is used to fit the data to the equation: y=a*(1/(1+(b/x)^c)) to determine the 50% excitatory concentration (EC50) for the response. In this equation, y is the maximum fluorescence signal, x is the concentration of the agonist or antagonist (in this case, capsaicin), a is the Emax, b corresponds to the EC50 value and c is the Hill coefficient. Determination of Agonist Activity
Test compounds are dissolved in DMSO, diluted in 20 μl KRH buffer so that the final concentration of test compounds in the assay well is between 1 μM and 5 μM, and added to cells prepared as described above. The 96 well plates containing prepared cells and test compounds are incubated in the dark, at room temperature for 0.5 to 6 hours. It is important that the incubation not continue beyond 6 hours. Just prior to determining the fluorescence response, 100 μl capsaicin in KRH buffer at twice the EC50 concentration determined as described above is automatically added by the FLIPR instrument to each well of the 96 well plate for a final sample volume of 200 μl and a final capsaicin concentration equal to the EC50. The final concentration of test compounds in the assay wells is between 1 μM and 5 μM. […] The concentration of antagonist required to provide a 50% decrease, relative to the response observed in the presence of capsaicin and without antagonist, is the IC50 for the antagonist, and is preferably below 1 micromolar, 100 nanomolar, 10 nanomolar or 1 nanomolar.

T1 sequence (Q8NER1 whole entry): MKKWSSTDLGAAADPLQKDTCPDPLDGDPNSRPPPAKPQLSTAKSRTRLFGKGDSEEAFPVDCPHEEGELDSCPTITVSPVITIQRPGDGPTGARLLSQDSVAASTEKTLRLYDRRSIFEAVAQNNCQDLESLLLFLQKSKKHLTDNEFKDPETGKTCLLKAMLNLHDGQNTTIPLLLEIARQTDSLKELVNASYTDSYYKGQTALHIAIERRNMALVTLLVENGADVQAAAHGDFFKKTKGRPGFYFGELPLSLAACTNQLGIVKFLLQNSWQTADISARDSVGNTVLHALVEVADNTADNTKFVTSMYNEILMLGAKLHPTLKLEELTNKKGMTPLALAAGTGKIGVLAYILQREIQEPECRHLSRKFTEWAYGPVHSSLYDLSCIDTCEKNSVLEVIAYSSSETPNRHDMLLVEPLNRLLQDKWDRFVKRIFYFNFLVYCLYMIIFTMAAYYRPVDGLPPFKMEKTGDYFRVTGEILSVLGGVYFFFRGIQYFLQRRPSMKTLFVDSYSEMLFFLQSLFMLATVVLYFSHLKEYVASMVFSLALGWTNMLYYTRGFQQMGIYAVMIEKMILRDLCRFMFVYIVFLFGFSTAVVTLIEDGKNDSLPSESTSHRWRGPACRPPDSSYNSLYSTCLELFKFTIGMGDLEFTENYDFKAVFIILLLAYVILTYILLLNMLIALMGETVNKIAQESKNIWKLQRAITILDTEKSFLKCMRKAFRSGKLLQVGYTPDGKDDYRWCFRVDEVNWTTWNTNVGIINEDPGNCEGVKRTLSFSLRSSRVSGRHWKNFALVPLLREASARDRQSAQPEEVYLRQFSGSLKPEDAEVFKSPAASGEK

IC50 [µM]	SMILES
≤ 0.1	CCn1cnc2c(=O)n(-c3ccc(Cl)cc3)c(CC(C)C(F)(F)F)nc21 (stereo not shown) [Compound 8, 1-(4-chlorophenyl)-9-ethyl-2-(3,3,3-trifluoro-2-methylpropyl)-1,9-dihydro-6H-purin-6-one]
≤ 0.1	CC(Cc1nc2c(ncn2C)c(=O)n1-c1ccc(Cl)cc1)C(F)(F)F (stereo not shown) [Compound 9, 1-(4-chlorophenyl)-9-methyl-2-(3,3,3-trifluoro-2-methylpropyl)-1,9-dihydro-6H-purin-6-one]
≤ 0.1	CCn1cnc2c(=O)n(-c3ccc(F)cc3)c(CC(C)C(F)(F)F)nc21 (stereo not shown) [Compound 10, 9-ethyl-1-(4-fluorophenyl)-2-(3,3,3-trifluoro-2-methylpropyl)-1,9-dihydro-6H-purin-6-one]
≤ 0.1	CCn1cnc2c(=O)n(-c3ccc(Cl)cc3)c(CC(C)CC(F)(F)F)nc21 (stereo not shown) [Compound 11, 1-(4-chlorophenyl)-9-ethyl-2-(4,4,4-trifluoro-2-methylbutyl)-1,9-dihydro-6H-purin-6-one]
≤ 0.1	CC(Cc1nc2c(ncn2C)c(=O)n1-c1ccc(Cl)cc1)CC(F)(F)F (stereo not shown) [Compound 12, 1-(4-chlorophenyl)-9-methyl-2-(4,4,4-trifluoro-2-methylbutyl)-1,9-dihydro-6H-purin-6-one]
≤ 0.1	CCn1cnc2c(=O)n(-c3ccc(F)cc3)c(CC(C)CC(F)(F)F)nc21 (stereo not shown) [Compound 13, 9-ethyl-1-(4-fluorophenyl)-2-(4,4,4-trifluoro-2-methylbutyl)-1,9-dihydro-6H-purin-6-one]
≤ 0.1	CC(Cc1nc2c(ncn2C)c(=O)n1-c1ccc(F)cc1)CC(F)(F)F (stereo not shown) [Compound 14, 1-(4-fluorophenyl)-9-methyl-2-(4,4,4-trifluoro-2-methylbutyl)-1,9-dihydro-6H-purin-6-one]
≤ 0.1	CC(Cc1nc2c(ncn2C2CC2)c(=O)n1-c1ccc(Cl)cc1)CC(F)(F)F (stereo not shown) [Compound 15, 1-(4-chlorophenyl)-9-cyclopropyl-2-(4,4,4-trifluoro-2-methylbutyl)-1,9-dihydro-6H-purin-6-one]
≤ 0.1	CCn1cnc2c(=O)n(-c3ccc(Cl)cc3)c(CCC(C)C(F)(F)F)nc21 (stereo not shown) [Compound 16, 1-(4-chlorophenyl)-9-ethyl-2-(4,4,4-trifluoro-3-methylbutyl)-1,9-dihydro-6H-purin-6-one]
≤ 0.1	CC(CCc1nc2c(ncn2C)c(=O)n1-c1ccc(Cl)cc1)C(F)(F)F (stereo not shown) [Compound 17, 1-(4-chlorophenyl)-9-methyl-2-(4,4,4-trifluoro-3-methylbutyl)-1,9-dihydro-6H-purin-6-one]
≤ 0.1	CCn1cnc2c(=O)n(-c3ccc(F)cc3)c(CCC(C)C(F)(F)F)nc21 (stereo not shown) [Compound 18, 9-ethyl-1-(4-fluorophenyl)-2-(4,4,4-trifluoro-3-methylbutyl)-1,9-dihydro-6H-purin-6-one]
≤ 0.1	CC(CCc1nc2c(ncn2C)c(=O)n1-c1ccc(F)cc1)C(F)(F)F (stereo not shown) [Compound 19, 1-(4-fluorophenyl)-9-methyl-2-(4,4,4-trifluoro-3-methylbutyl)-1,9-dihydro-6H-purin-6-one]
≤ 0.1	CC(Cc1nc2c(ncn2CC(F)(F)F)c(=O)n1-c1ccc(Cl)cc1)CC(F)(F)F (stereo not shown) [Compound 20, 1-(4-chlorophenyl)-9-(2,2,2-trifluoroethyl)-2-(4,4,4-trifluoro-2-methylbutyl)-1,9-dihydro-6H-purin-6-one]
≤ 0.1	CC(Cc1nc2c(ncn2CC(F)F)c(=O)n1-c1ccc(Cl)cc1)CC(F)(F)F (stereo not shown) [Compound 21, 1-(4-chlorophenyl)-9-(2,2-difluoroethyl)-2-(4,4,4-trifluoro-2-methylbutyl)-1,9-dihydro-6H-purin-6-one]
≤ 0.1	CC(Cc1nc2c(ncn2CC(F)F)c(=O)n1-c1ccc(Cl)cc1)C(F)(F)F (stereo not shown) [Compound 22, 1-(4-chlorophenyl)-9-(2,2-difluoroethyl)-2-(3,3,3-trifluoro-2-methylpropyl)-1,9-dihydro-6H-purin-6-one]
≤ 0.1	CC(CCc1nc2c(ncn2CC(F)F)c(=O)n1-c1ccc(Cl)cc1)C(F)(F)F (stereo not shown) [Compound 23, 1-(4-chlorophenyl)-9-(2,2-difluoroethyl)-2-(4,4,4-trifluoro-3-methylbutyl)-1,9-dihydro-6H-purin-6-one]
≤ 0.1	CC(Cc1nc2c(ncn2CC(F)(F)F)c(=O)n1-c1ccc(Cl)cc1)C(F)(F)F (stereo not shown) [Compound 24, 1-(4-chlorophenyl)-9-(2,2,2-trifluoroethyl)-2-(3,3,3-trifluoro-2-methylpropyl)-1,9-dihydro-6H-purin-6-one]
≤ 0.1	CC(CCc1nc2c(ncn2CC(F)(F)F)c(=O)n1-c1ccc(Cl)cc1)C(F)(F)F (stereo not shown) [Compound 25, 1-(4-chlorophenyl)-9-(2,2,2-trifluoroethyl)-2-(4,4,4-trifluoro-3-methylbutyl)-1,9-dihydro-6H-purin-6-one]
≤ 0.1	CC(Cc1nc2c(ncn2CC(F)F)c(=O)n1-c1ccc(F)cc1)CC(F)(F)F (stereo not shown) [Compound 26, 9-(2,2-difluoroethyl)-1-(4-fluorophenyl)-2-(4,4,4-trifluoro-2-methylbutyl)-1,9-dihydro-6H-purin-6-one]
≤ 0.1	CC(CCc1nc2c(ncn2CC(F)F)c(=O)n1-c1ccc(F)cc1)C(F)(F)F (stereo not shown) [Compound 27, 9-(2,2-difluoroethyl)-1-(4-fluorophenyl)-2-(4,4,4-trifluoro-3-methylbutyl)-1,9-dihydro-6H-purin-6-one]
≤ 0.1	CC(CCc1nc2c(ncn2C)c(=O)n1-c1ccc(C#N)cc1)C(F)(F)F (stereo not shown) [Compound 28, 4-[9-methyl-6-oxo-2-(4,4,4-trifluoro-3-methylbutyl)-6,9-dihydro-1H-purin-1-yl]benzonitrile]
≤ 0.1	CC(Cc1nc2c(ncn2C)c(=O)n1-c1ccc(C#N)cc1)CC(F)(F)F (stereo not shown) [Compound 29, 4-[9-methyl-6-oxo-2-(4,4,4-trifluoro-2-methylbutyl)-6,9-dihydro-1H-purin-1-yl]benzonitrile]
≤ 0.1	C[C@H](Cc1nc2c(ncn2C)c(=O)n1-c1ccc(Cl)cc1)CC(F)(F)F [Compound 30, 1-(4-chlorophenyl)-9-methyl-2-[(2R)-4,4,4-trifluoro-2-methylbutyl]-1,9-dihydro-6H-purin-6-one]
≤ 0.1	CCn1cnc2c(=O)n(-c3ccc(C#N)cc3)c(CC(C)CC(F)(F)F)nc21 (stereo not shown) [Compound 31, 4-[9-ethyl-6-oxo-2-(4,4,4-trifluoro-2-methylbutyl)-6,9-dihydro-1H-purin-1-yl]benzonitrile]
≤ 0.1	C[C@@H](CCc1nc2c(ncn2C)c(=O)n1-c1ccc(Cl)cc1)C(F)(F)F [Compound 32, 1-(4-chlorophenyl)-9-methyl-2-[(3S)-4,4,4-fluoro-3-methylbutyl]-1,9-dihydro-6H-purin-6-one]
≤ 0.1	C[C@H](CCc1nc2c(ncn2C)c(=O)n1-c1ccc(Cl)cc1)C(F)(F)F [Compound 33, 1-(4-chlorophenyl)-9-methyl-2-[(3R)-4,4,4-fluoro-3-methylbutyl]-1,9-dihydro-6H-purin-6-one]

Same assay, conditions: cells expressing human capsaicin receptor, capsaicin-induced fluorescence response; read-out: IC50 determined as described in Example 6

IC50 [µM]	SMILES
≤ 0.1	C[C@H](Cc1nc2c(ncn2C)c(=O)n1-c1ccc(Cl)cc1)C(F)(F)F [Compound 6, (R)-1-(4-Chlorophenyl)-9-methyl-2-(3,3,3-trifluoro-2-methylpropyl)-1H-purin-6(9H)-one]
≤ 0.1	CCn1cnc2c(=O)n(-c3ccc(Cl)nc3)c(CC(C)C(F)(F)F)nc21 (stereo not shown) [Compound 7, 1-(6-chloropyridin-3-yl)-9-ethyl-2-(3,3,3-trifluoro-2-methylpropyl)-1,9-dihydro-6H-purin-6-one]

Reference: patent publication US20080090845A1, “Haloalkyl-substituted pyrimidinone derivatives” (Neurogen Corporation, priority 2006, published 2008)
